Experiments:
[1] = tested on: DSS-induced ulcerative colitis; settings: chronic 2% DSS murine model, previous data obtained by CRL; cited from earlier work
Escherichia coli K12 = experiment: Agar well diffusion assay; assay type: cell-based; settings: E. coli, includes well diameter of 9 mm
Description: (§1) Inhibition of pathogen growth was determined using an agar well diffusion assay. Cultures of the five test Lactobacillus species were grown in MRS broth for 24 hours at 37° C. Each pathogen was sub-cultured onto nutrient agar plates or 5% CBA plates and incubated under the appropriate conditions (as described above) prior to resuspension in DPBS to give a McFarland standard of 0.5 (equivalent to 10^8 CFU/mL). Each 0.5 McFarland standardised culture was spread, using a swab, onto nutrient agar plates or CBA plates and allowed to soak in prior to making 9 mm wells. 100 μL of each test Lactobacillus, was then added to individual wells and the plates were incubated for 24 hours at 37° C. […] Following incubation, zones of inhibition or zones of growth reduction (hazing of growth) were measured (mm) and recorded. Two readings were taken for each zone and three replicates were used.
(§2) The ability of L. diolivorans, L. paracasei, L. parafarraginis, L. rapi and L. zeae deposited pursuant to the Budapest Treaty as described hereinbefore were then tested for their ability to inhibit the growth of pathogenic bacteria Staphylococcus aureus (ATCC 29213 and ATCC 25923), Staphylococcus epidermidis (clinical isolate), Pseudomonas aeruginosa (ATCC 27853) and Escherichia coli K12. These pathogens were grown under aerobic conditions at 37° C. in nutrient agar. Inhibition of growth was determined using an agar well diffusion assay as described above. In addition, cell free supernatants derived from culture of the Lactobacillus species were also tested. Briefly, after 24 hours growth, cultures of Lactobacillus were centrifuged at 10,000×g and the supernatant filter sterilised through a 0.2 μm membrane. 100 μl of cell free supernatant was added to the wells containing pathogen.

[2] = tested on: Pseudomonas aeruginosa (ATCC 27853); experiment: Agar well diffusion assay; assay type: cell-based; settings: P. aeruginosa, includes well diameter of 9 mm
Description: as §1, §2

[3] = tested on: Staphylococcus aureus (ATCC 29213); experiment: Agar well diffusion assay; assay type: cell-based; settings: S. aureus (ATCC 29213), includes well diameter of 9 mm
Description: as §1, §2

[4] = tested on: Staphylococcus aureus (ATCC 25923); experiment: Agar well diffusion assay; assay type: cell-based; settings: S. aureus (ATCC 25923), includes well diameter of 9 mm
Description: as §1, §2

[5] = tested on: Klebsiella oxytoca (ATCC 700324); experiment: Agar well diffusion assay; assay type: cell-based; settings: K. oxytoca; 100 μL culture per 9 mm well, 24 hours; ciprofloxacin 5 μg
Description: (§3) The ability of the Lactobacillus species L. diolivorans, L. paracasei, L. parafarraginis, L. rapi and L. zeae deposited pursuant to the Budapest Treaty as described hereinbefore were tested for their ability to inhibit the growth of bacterial pathogens associated with inflammation and various inflammatory conditions. Pathogens tested for this purpose were Campylobacter jejuni (ATCC 33291), Helicobacter pylori (ATCC 700824), Clostridium difficile (ATCC 9689), Salmonella typhimurium (ATCC 29630), Yersinia enterocolitica (ATCC 23715), Citrobacter sp (ATCC 51378), Streptococcus pyogenes (ATCC 19615), Streptococcus mutans (ATCC 25175), Klebsiella oxytoca (ATCC 700324), and Proteus mirabilis (ATCC 25933). C. jejuni and H. pylori were grown under microaerobic conditions at 37° C. in 5% Columbia horse blood agar (CBA). S. typhimurium, Y. enterocolitica, Citrobacter sp., K. oxytoca and P. mirabilis were grown under aerobic conditions at 37° C. in nutrient agar. S. pyogenes and S. mutans were grown under aerobic conditions with 5% CO2 at 37° C. in 5% CBA. C. difficile was grown under anaerobic conditions at 37° C. in 5% CBA.
as §1

[6] = tested on: Streptococcus mutans (ATCC 25175); experiment: Agar well diffusion assay; assay type: cell-based; settings: S. mutans; 100 μL culture per 9 mm well, 24 hours; ciprofloxacin 5 μg
Description: as §3, §1

[7] = tested on: Yersinia enterocolitica (ATCC 23715); experiment: Agar well diffusion assay; assay type: cell-based; settings: Y. enterocolitica; 100 μL culture per 9 mm well, 24 hours; ciprofloxacin 5 μg
Description: as §3, §1

[8] = tested on: Streptococcus pyogenes (ATCC 19615); experiment: Agar well diffusion assay; assay type: cell-based; settings: S. pyogenes; 100 μL culture per 9 mm well, 24 hours; ciprofloxacin 5 μg
Description: as §3, §1

[9] = tested on: Proteus mirabilis (ATCC 25933); experiment: Agar well diffusion assay; assay type: cell-based; settings: P. mirabilis; 100 μL culture per 9 mm well, 24 hours; ciprofloxacin 5 μg
Description: as §3, §1

[10] = tested on: Citrobacter sp (ATCC 51378); experiment: Agar well diffusion assay; assay type: cell-based; settings: 100 μL culture per 9 mm well, 24 hours, ciprofloxacin 5 μg
Description: as §3, §1

[11] = tested on: Helicobacter pylori (ATCC 700824); experiment: Agar well diffusion assay; assay type: cell-based; settings: H. pylori; 100 μL culture per 9 mm well, 24 hours; ciprofloxacin 5 μg
Description: as §3, §1

[12] = tested on: Campylobacter jejuni (ATCC 33291); experiment: Agar well diffusion assay; assay type: cell-based; settings: C. jejuni; 100 μL culture per 9 mm well, 24 hours; ciprofloxacin 5 μg
Description: as §3, §1

[13] = tested on: Salmonella typhimurium (ATCC 29630); experiment: Agar well diffusion assay; assay type: cell-based; settings: S. typhimurium; 100 μL culture per 9 mm well, 24 hours; ciprofloxacin 5 μg
Description: as §3, §1

[14] = cell free supernatants derived from Lactobacilli cultures

Structure (SMILES): Nc1ccc(O)c(C(=O)O)c1 [5-Aminosalicylic acid]
- Therapeutic efficacy (DAI score) [1]: failed to demonstrate therapeutic efficacy

Structure (SMILES): Nc1nc2nc[nH]c2c(=S)[nH]1 [6-Thioguanine]
- Therapeutic efficacy (DAI score) [1]: failed to demonstrate therapeutic efficacy

Structure (SMILES): O=C(O)c1cn(C2CC2)c2cc(N3CCNCC3)c(F)cc2c1=O [Ciprofloxacin, ciprofloxacin]
- Zones of inhibition/zones of growth reduction (Escherichia coli K12; [14]): 40.0 mm
- Zones of inhibition/zones of growth reduction (Escherichia coli K12; live cultures of Lactobacilli): 40.0 mm
- Zones of inhibition/zones of growth reduction [2, 14]: 39.2 mm
- Zones of inhibition/zones of growth reduction ([2]; live cultures of Lactobacilli): 39.2 mm
- Zones of inhibition/zones of growth reduction [3, 14]: 33.7 mm
- Zones of inhibition/zones of growth reduction ([3]; live cultures of Lactobacilli): 33.7 mm
- Zones of inhibition/zones of growth reduction [4, 14]: 33.7 mm
- Zones of inhibition/zones of growth reduction ([4]; live cultures of Lactobacilli): 33.7 mm
- Zones of inhibition/zones of growth reduction [5]: 41.2 mm
- Zones of inhibition/zones of growth reduction [6]: 28.5 mm
- Zones of inhibition/zones of growth reduction [7]: 44.2 mm
- Zones of inhibition/zones of growth reduction [8]: 30.2 mm
- Zones of inhibition/zones of growth reduction [9]: 44.2 mm
- Zones of inhibition/zones of growth reduction [10]: 47.0 mm
- Zones of inhibition/zones of growth reduction [11]: 31.7 mm
- Zones of inhibition/zones of growth reduction [12]: 30.2 mm
- Zones of inhibition/zones of growth reduction [13]: 49 mm

Structure (SMILES): C[C@]12C=CC(=O)C=C1CC[C@@H]1[C@@H]2[C@@H](O)C[C@@]2(C)[C@H]1CC[C@]2(O)C(=O)CO [Prednisolone]
- Therapeutic efficacy (DAI score) [1]: failed to demonstrate therapeutic efficacy

Structure (SMILES): O=C(O)c1cc(/N=N/c2ccc(S(=O)(=O)Nc3ccccn3)cc2)ccc1O [Sulfasalazine]
- Therapeutic efficacy (DAI score) [1]: failed to demonstrate therapeutic efficacy
